In patent US10221129B2, “Inhibitors of human immunodeficiency virus replication” (ViiV HEALTHCARE UK (NO.5) LIMITED, priority 2015, dated 2019):

Columns and labels:
[1] = Compound cytotoxicity, XTT-based colorimetric assay; assay type: cell-based; settings: human, uninfected MT2 cells, day 4, XTT
In short: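 Run under the antiviral-assay protocol but without virus. Viability was read on day 4 and CC50 values were derived from the readout.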

[2] = test system: recombinant NL4-3 virus (nef section replaced with Renilla luciferase gene) in MT-2 cells; experiment: HIV cell culture assay (antiviral activity, luciferase readout); assay type: cell-based; settings: Renilla, NL43, MT-2 cells infected for 4-5 days with recombinant NL4-3 Renilla luciferase virus
In short: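 Serial compound dilutions tested in MT-2 cells infected for 4-5 days with 293T-derived NL4-3 virus carrying Renilla luciferase in place of part of nef. Antiviral activity quantified as luciferase activity, read with a live-cell substrate.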

COc1ccc(N(C)C(=O)[C@H](Cc2ccccc2)NC(=O)NS(=O)(=O)n2ccc3c(F)c(F)c(F)c(F)c32)cc1 [JB-78]
CC50 at 4 days [1]: > 33.3 µM
EC50 [2]: 0.37 µM

CN(C(=O)[C@H](Cc1cc(F)cc(F)c1)NC(=O)NS(=O)(=O)N1CCc2cccnc21)c1ccc(C(F)F)nc1 [GW-12]
CC50 at 4 days [1]: > 100 µM
EC50 [2]: 0.12 µM

COc1ccc(N(C(=O)[C@H](Cc2cc(F)cc(F)c2)NC(=O)NS(=O)(=O)N2CCc3cccnc32)C2CC2)cc1 [BB-32]
CC50 at 4 days [1]: 62.6 µM
EC50 [2]: 0.05 µM

CN(C(=O)[C@H](Cc1cc(F)cc(F)c1)NC(=O)NS(=O)(=O)N1CCc2cccnc21)c1ccc2sc(=O)[nH]c2c1 [GW-5]
CC50 at 4 days [1]: > 100 µM
EC50 [2]: 0.32 µM

COc1ccc(N(C)C(=O)[C@H](Cc2ccccc2)NC(=O)NS(=O)(=O)N(C)C(c2ccccc2)c2ccccc2)cc1 [JB-40]
CC50 at 4 days [1]: 66.5 µM
EC50 [2]: 2.88 µM

COC(=O)Nc1ccc(NS(=O)(=O)NC(=O)N[C@@H](Cc2ccccc2)C(=O)N(C)c2ccc(OC)cc2)cc1 [JB-62]
CC50 at 4 days [1]: > 100 µM
EC50 [2]: 0.29 µM

CN(C(=O)[C@H](Cc1cc(F)cc(F)c1)NC(=O)NS(=O)(=O)N1CCc2cc(Br)cnc21)c1ccc2scnc2c1 [ZY-21]
CC50 at 4 days [1]: > 100 µM
EC50 [2]: 0.49 µM

COc1ccc(N(C)C(=O)[C@H](Cc2ccccc2)NC(=O)NS(=O)(=O)Nc2ccc(Cl)cc2Cl)cc1 [CA-50]
CC50 at 4 days [1]: > 100 µM
EC50 [2]: 0.11 µM

COc1ccc(N(C)C(=O)[C@H](Cc2ccccc2)NC(=O)NS(=O)(=O)NCC(=O)N2CCCC2)cc1 [CA-51]
CC50 at 4 days [1]: > 100 µM
EC50 [2]: 4.59 µM

COc1ccc(N(C)C(=O)[C@H](Cc2ccccc2)NC(=O)NS(=O)(=O)N(C)c2ccc(OC)cc2)cc1 [JB-28]
CC50 at 4 days [1]: > 100 µM
EC50 [2]: 0.21 µM

CCOc1ccc(N(CC)C(=O)[C@H](Cc2ccccc2)NC(=O)NS(=O)(=O)N2CCc3ccccc32)cc1 [JB-73]
CC50 at 4 days [1]: > 33.3 µM
EC50 [2]: 0.05 µM

COc1ccc(N(C)C(=O)[C@H](Cc2ccccc2)NC(=O)NS(=O)(=O)Nc2cccc(Oc3ccccc3)c2)cc1 [CA-36]
CC50 at 4 days [1]: > 33.3 µM
EC50 [2]: 0.2 µM

COc1ccc(N(C)C(=O)[C@H](Cc2ccccc2)NC(=O)NS(=O)(=O)Nc2ccc(NC(=O)N(C)C)cc2)cc1 [JB-52]
CC50 at 4 days [1]: > 100 µM
EC50 [2]: 5.94 µM

CCc1ccc(CN(C)S(=O)(=O)NC(=O)N[C@@H](Cc2ccccc2)C(=O)N(C)c2ccc(OC)cc2)cc1 [JB-41]
CC50 at 4 days [1]: > 33.3 µM
EC50 [2]: 5.06 µM

Cc1cc(N(C)C(=O)[C@H](Cc2ccccc2)NC(=O)NS(=O)(=O)N2CCc3cccnc32)ccc1Cl [BB-6]
CC50 at 4 days [1]: > 33.3 µM
EC50 [2]: 0.34 µM

CC(C)CCNS(=O)(=O)NC(=O)N[C@@H](Cc1cc(F)cc(F)c1)C(=O)N(C)c1ccc2scnc2c1 [CA-145]
CC50 at 4 days [1]: > 100 µM
EC50 [2]: 0.12 µM

COc1ccc(N(C)C(=O)[C@H](Cc2ccccc2)NC(=O)NS(=O)(=O)Nc2ccc(C)cc2)cc1 [JB-26]
CC50 at 4 days [1]: > 100 µM
EC50 [2]: 0.04 µM

COc1ccc(N(C)C(=O)[C@H](Cc2ccccc2)NC(=O)NS(=O)(=O)Nc2ccc(-c3cnco3)cc2)cc1 [CA-38]
CC50 at 4 days [1]: > 100 µM
EC50 [2]: 0.25 µM

COc1ccc(N(C)C(=O)[C@H](Cc2ccccc2)NC(=O)NS(=O)(=O)Nc2ccccc2Cl)cc1 [JB-5]
CC50 at 4 days [1]: > 100 µM
EC50 [2]: 0.1 µM

CN(C(=O)[C@H](Cc1cc(F)cc(F)c1)NC(=O)NS(=O)(=O)N1CCc2cccnc21)c1ccc(Cl)cc1 [ZY-25]
CC50 at 4 days [1]: 97.1 µM
EC50 [2]: 0.03 µM

COc1ccc(N(C)C(=O)[C@H](Cc2ccccc2)NC(=O)NS(=O)(=O)Nc2ccc(-n3cccc3)cc2)cc1 [CA-45]
CC50 at 4 days [1]: > 33.3 µM
EC50 [2]: 0.52 µM

CCNS(=O)(=O)NC(=O)N[C@@H](Cc1cc(F)cc(F)c1)C(=O)N(C)c1ccc2scnc2c1 [CA-124]
CC50 at 4 days [1]: > 100 µM
EC50 [2]: 0.11 µM

COc1ccccc1NS(=O)(=O)NC(=O)N[C@@H](Cc1ccccc1)C(=O)N(C)c1ccc2ncccc2c1 [JB-12]
CC50 at 4 days [1]: 57.7 µM
EC50 [2]: 0.17 µM

COc1ccc(N(C)C(=O)[C@H](Cc2ccccc2)NC(=O)NS(=O)(=O)N2CCN(C)CC2c2ccccc2)cc1 (mixture of isomers) [JB-42]
CC50 at 4 days [1]: > 100 µM
EC50 [2]: 0.45 µM

COc1ccc(N(C)C(=O)[C@H](Cc2ccccc2)NC(=O)NS(=O)(=O)Nc2cccc(-c3ccccc3)c2)cc1 [CA-37]
CC50 at 4 days [1]: > 33.3 µM
EC50 [2]: 1.2 µM

CCN(c1ccccc1)S(=O)(=O)NC(=O)N[C@@H](Cc1ccccc1)C(=O)N(C)c1ccc(OC)cc1 [CA-23]
CC50 at 4 days [1]: > 100 µM
EC50 [2]: 0.06 µM

CN(C(=O)[C@H](Cc1cc(F)cc(F)c1)NC(=O)NS(=O)(=O)N(C)CCO)c1ccc2scnc2c1 [CA-125]
CC50 at 4 days [1]: > 100 µM
EC50 [2]: 0.16 µM

CC(C)c1ccc(N(C)C(=O)[C@H](Cc2cc(F)cc(F)c2)NC(=O)NS(=O)(=O)N2CCc3cccnc32)cn1 [BB-18]
CC50 at 4 days [1]: > 100 µM
EC50 [2]: 0.01 µM

CN(C(=O)[C@H](Cc1cc(F)cc(F)c1)NC(=O)NS(=O)(=O)N1CCc2cccnc21)c1ccc(N2CCOCC2)cc1 [BB-3]
CC50 at 4 days [1]: 68.1 µM
EC50 [2]: 0.34 µM

COc1ccc(N(C)C(=O)[C@H](Cc2ccccc2)NC(=O)NS(=O)(=O)Nc2ccc(OC(C)C)cc2)cc1 [CA-40]
CC50 at 4 days [1]: > 100 µM
EC50 [2]: 0.22 µM

COc1ccc(N(C)C(=O)[C@H](Cc2ccccc2)NC(=O)NS(=O)(=O)n2c3ccccc3c3ccccc32)cc1 [JB-9]
CC50 at 4 days [1]: 74.2 µM
EC50 [2]: 0.44 µM

CN(C(=O)[C@H](Cc1cc(F)cc(F)c1)NC(=O)NS(=O)(=O)NCCc1ccccc1)c1ccc2scnc2c1 [CA-158]
CC50 at 4 days [1]: > 100 µM
EC50 [2]: 0.34 µM

CN(C(=O)[C@H](Cc1cc(F)cc(F)c1)NC(=O)NS(=O)(=O)N1CCC[C@H]1CO)c1ccc2scnc2c1 [CA-131]
CC50 at 4 days [1]: > 100 µM
EC50 [2]: 0.21 µM

COc1ccc(N(C)C(=O)[C@H](Cc2ccccc2)NC(=O)NS(=O)(=O)N2Cc3ccncc3C2)cc1 [JB-44]
CC50 at 4 days [1]: > 100 µM
EC50 [2]: 1.75 µM

CN(C(=O)[C@H](Cc1cc(F)cc(F)c1)NC(=O)NS(=O)(=O)N1CCc2cc(F)ccc21)c1ccc2scnc2c1 [ZY-12]
CC50 at 4 days [1]: > 100 µM
EC50 [2]: 0.11 µM

COc1ccc(N(C)C(=O)[C@H](Cc2ccccc2)NC(=O)NS(=O)(=O)NCc2ccc3nc(C)[nH]c3c2)cc1 [JB-54]
CC50 at 4 days [1]: > 100 µM
EC50 [2]: 12 µM

COc1ccc(N(C)C(=O)[C@H](Cc2ccccc2)NC(=O)NS(=O)(=O)N2CCCCC2c2ccccc2)cc1 (some centres unmarked) [JB-53]
CC50 at 4 days [1]: 85.5 µM
EC50 [2]: 1.1 µM

CN(C(=O)[C@H](Cc1cc(F)cc(F)c1)NC(=O)NS(=O)(=O)N1CCc2cccnc21)c1ccc2c(cnn2C)c1 [GW-8]
CC50 at 4 days [1]: > 25 µM
EC50 [2]: 0.1 µM

CN(C(=O)[C@H](Cc1cc(F)cc(F)c1)NC(=O)NS(=O)(=O)N1CCc2cccnc21)c1cccnc1 [GW-18]
CC50 at 4 days [1]: > 100 µM
EC50 [2]: 0.18 µM

COc1ccc(N(C)C(=O)[C@H](Cc2ccccc2)NC(=O)NS(=O)(=O)Nc2ccccc2C(F)(F)F)cc1 [CA-60]
CC50 at 4 days [1]: > 100 µM
EC50 [2]: 0.87 µM

CN1CCN(S(=O)(=O)NC(=O)N[C@@H](Cc2cc(F)cc(F)c2)C(=O)N(C)c2ccc3scnc3c2)CC1 [CA-122]
CC50 at 4 days [1]: > 33.3 µM
EC50 [2]: 0.28 µM

COc1ccc(N(C)C(=O)[C@H](Cc2ccccc2)NC(=O)NS(=O)(=O)Nc2ccc(Cc3ccncc3)cc2)cc1 [CA-39]
CC50 at 4 days [1]: > 100 µM
EC50 [2]: 0.33 µM

COc1ccc(N(C)C(=O)[C@H](Cc2ccccc2)NC(=O)NS(=O)(=O)N(C)c2cccc(Cl)c2)cc1 [JB-37]
CC50 at 4 days [1]: > 100 µM
EC50 [2]: 0.06 µM

CN(C(=O)[C@H](Cc1cc(F)cc(F)c1)NC(=O)NS(=O)(=O)N1CCc2cccnc21)c1ccc(OC(F)F)nc1 [GW-13]
CC50 at 4 days [1]: > 100 µM
EC50 [2]: 0.06 µM

Cc1ccc(NS(=O)(=O)NC(=O)N[C@@H](Cc2cc(F)cc(F)c2)C(=O)N(C)c2ccc3scnc3c2)cc1 [ZY-10]
CC50 at 4 days [1]: > 100 µM
EC50 [2]: 0.05 µM

COc1ccc(N(C)C(=O)[C@H](Cc2ccccc2)NC(=O)NS(=O)(=O)Nc2ccccc2)cc1 [JB-4]
CC50 at 4 days [1]: > 100 µM
EC50 [2]: 0.14 µM

COc1ccc(N(C)C(=O)[C@H](Cc2ccccc2)NC(=O)NS(=O)(=O)Nc2ccc(C(C)=O)cc2)cc1 [CA-19]
CC50 at 4 days [1]: > 100 µM
EC50 [2]: 0.12 µM

COc1ccc(N(C)C(=O)[C@H](Cc2ccccc2)NC(=O)NS(=O)(=O)Nc2ccc(C(F)(F)F)cc2)cc1 [CA-28]
CC50 at 4 days [1]: > 100 µM
EC50 [2]: 0.05 µM

CC(C)CN(C)S(=O)(=O)NC(=O)N[C@@H](Cc1cc(F)cc(F)c1)C(=O)N(C)c1ccc2scnc2c1 [CA-140]
CC50 at 4 days [1]: > 100 µM
EC50 [2]: 0.04 µM
